Structures are written as SMILES. Values after ≈ are worked out from the molar mass of the structure shown.

Results on 28 molecules are retold here after patent US3957811A, “Process for 3-(1-[arylmethyl]tetrazol-5-yl)penams” (Pfizer Inc., priority 1974, dated 1976).

The test system of the first test is Streptococcus pyogenes. Nature of the test: In vitro MIC, conventional two-fold serial dilution technique in Brain-Heart Infusion broth, vs. Strep. pyogenes. It is filed as cell-based. Conditions: Streptococcus pyogenes, read-out: MIC vs. Strep. pyogenes. Here is the method:
The antibacterial penam compounds, prepared from the products of the instant process invention, show activity against a wide variety of gram-positive and gram-negative bacteria. […] The broth is inoculated with the bacterial culture, and with the test antibiotic, and then it is incubated overnight. On the next day, the test is read visually. The minimum inhibitory concentration (MIC) is the lowest concentration of antibiotic which prevents turbidity, i.e., which prevents growth of the microorganism. In vitro activities of several of the penam compounds of the invention are presented later in this specification.
In vitro antibacterial activities for a number of compounds prepared by the procedure of Example 8 are presented below.
In Table II, the minimum inhibitory concentrations (MIC's) of compounds wherein R is hydrogen, against a strain of Streptococcus pyogenes are reported.
As to `CC1(C)S[C@@H]2[C@H](NC(=O)C(N)c3cc(O)ccc3Br)C(=O)N2[C@H]1c1nnn[nH]1` (mixture of isomers), the MIC was < 0.1 µg/mL.

As to `CC1(C)S[C@@H]2[C@H](NC(=O)CSc3ccncc3)C(=O)N2[C@H]1c1nnn[nH]1` [2-(4-pyridylthio)acetyl], the MIC was < 0.1 µg/mL.

Consider `CC1(C)S[C@@H]2[C@H](NC(=O)[C@H](N)c3ccc(O)cc3)C(=O)N2[C@H]1c1nnn[nH]1` [D-2-amino-2-(p-hydroxyphenyl)acetyl, 6-(D-2-amino-2-[p-hydroxyphenyl]acetamido)-2,2-dimethyl-3-(5-tetrazolyl)penam], for which the minimal inhibitory concentration (MIC) was < 0.1 µg/mL.

As to `CC1(C)S[C@@H]2[C@H](NC(=O)Oc3ccccc3)C(=O)N2[C@H]1c1nnn[nH]1` [phenoxycarbonyl], the minimum inhibitory concentration (MIC) was < 0.1 µg/mL.

Still in this test, the particulars now being: compounds wherein R is hydrogen; a strain of Streptococcus pyogenes; Brain-Heart Infusion broth, overnight; read-out: MIC vs. Strep. pyogenes.
For the molecule `CC1(C)S[C@@H]2[C@H](NC(=O)[C@H](N)c3ccc(O)c(Cl)c3)C(=O)N2[C@H]1c1nnn[nH]1`, the MIC worked out at 0.1 µg/mL (≈ 0.236 µM).

Consider `CC1(C)S[C@@H]2[C@H](NC(=O)C(N)c3ccc(O)c(O)c3)C(=O)N2[C@H]1c1nnn[nH]1` (mixture of isomers) [DL-2-amino-2-(3,4-dihydroxyphenyl)acetyl], for which the MIC was < 0.1 µg/mL.

For the molecule `CC1(C)S[C@@H]2[C@H](NC(=O)C(N)c3ccc(Cl)cc3)C(=O)N2[C@H]1c1nnn[nH]1` (mixture of isomers) [DL-2-amino-2-(p-chlorophenyl)acetyl], the MIC is < 0.1 µg/mL.

In the case of `CC1(C)S[C@@H]2[C@H](NC(=O)C3(N)CCCCC3)C(=O)N2[C@H]1c1nnn[nH]1` [1-aminocyclohexylcarbonyl], the MIC was 25 µg/mL (≈ 68.4 µM).

Turning to `COc1cccc(OC)c1C(=O)N[C@@H]1C(=O)N2[C@@H]1SC(C)(C)[C@@H]2c1nnn[nH]1` [2,6-dimethoxybenzoyl], the MIC is < 0.2 µg/mL.

For the molecule `CC1(C)S[C@@H]2[C@H](NC(=O)Cn3cnnn3)C(=O)N2[C@H]1c1nnn[nH]1` [2-(1-tetrazolyl)acetyl], the MIC was < 0.39 µg/mL.

On to `CCN=C(NCC)SCC(=O)N[C@@H]1C(=O)N2[C@@H]1SC(C)(C)[C@@H]2c1nnn[nH]1` [2-(N,N'-diethylamidinothio)acetyl], for which the MIC was < 0.1 µg/mL.

`CC1(C)S[C@@H]2[C@H](NC(=O)C(N=[N+]=[N-])c3ccccc3)C(=O)N2[C@H]1c1nnn[nH]1` (stereo partly shown) [2-azido-2-phenylacetyl]: the MIC is < 0.1 µg/mL.

Regarding `CC1(C)S[C@@H]2[C@H](NC(=O)CBr)C(=O)N2[C@H]1c1nnn[nH]1` [2-bromoacetyl], the MIC is < 0.1 µg/mL.

For `CC1(C)S[C@@H]2[C@H](NC(=O)CC#N)C(=O)N2[C@H]1c1nnn[nH]1` [2-cyanoacetyl], the MIC amounted to 0.1 µg/mL (≈ 0.325 µM).

For `CC1(C)S[C@@H]2[C@H](NC(=O)COc3ccccc3)C(=O)N2[C@H]1c1nnn[nH]1` [2-phenoxyacetyl], the MIC is < 0.1 µg/mL.

Regarding `CC1(C)S[C@@H]2[C@H](NC(=O)Cc3ccccc3)C(=O)N2[C@H]1c1nnn[nH]1` [2-phenylacetyl, 6-(2-Phenylacetamido)-2,2-dimethyl-3-(5-tetrazolyl)penam], the MIC was < 0.1 µg/mL.

With `CC1(C)S[C@@H]2[C@H](NC(=O)C=CC(N)=O)C(=O)N2[C@H]1c1nnn[nH]1` [3-(carbamoyl)acryloyl], the minimal inhibitory concentration (MIC) was < 0.1 µg/mL.

As for `CC1(C)S[C@@H]2[C@H](NC(=O)[C@H](N)c3cccs3)C(=O)N2[C@H]1c1nnn[nH]1` [D-2-amino-2-(2-thienyl)acetyl], the minimal inhibitory concentration (MIC) is 0.1 µg/mL (≈ 0.264 µM).

`CC1(C)S[C@@H]2[C@H](NC(=O)[C@H](N)c3cccc(F)c3)C(=O)N2[C@H]1c1nnn[nH]1` [D-2-amino-2-(m-fluorophenyl)acetyl]: the MIC was < 0.1 µg/mL.

For the molecule `CC1(C)S[C@@H]2[C@H](NC(=O)[C@H](N)c3cccc(O)c3)C(=O)N2[C@H]1c1nnn[nH]1` [D-2-amino-2-(m-hydroxyphenyl)acetyl], the MIC was < 0.1 µg/mL.

`CC1(C)S[C@@H]2[C@H](NC(=O)[C@H](N)c3ccccc3)C(=O)N2[C@H]1c1nnn[nH]1` [D-2-amino-2-phenylacetyl]: the MIC was < 0.1 µg/mL.

For the molecule `CC(C)[C@@H](N)C(=O)N[C@@H]1C(=O)N2[C@@H]1SC(C)(C)[C@@H]2c1nnn[nH]1` [D-2-amino-3-methylbutyryl], the MIC was found to be 0.2 µg/mL (≈ 0.589 µM).

`CC1(C)S[C@@H]2[C@H](NC(=O)[C@H](N)Cc3ccccc3)C(=O)N2[C@H]1c1nnn[nH]1` [D-2-amino-3-phenylpropionyl]: the minimum inhibitory concentration (MIC) stood at 0.39 µg/mL (≈ 1.01 µM).

For `CC1(C)S[C@@H]2[C@H](NC(=O)[C@@H](N)c3ccc(O)cc3)C(=O)N2[C@H]1c1nnn[nH]1` [L-2-amino-2-(p-hydroxyphenyl)acetyl], the MIC was < 0.1 µg/mL.

For the molecule `CC(=O)N[C@@H]1C(=O)N2[C@@H]1SC(C)(C)[C@@H]2c1nnn[nH]1` [acetyl], the minimal inhibitory concentration (MIC) is < 0.1 µg/mL.

Regarding `CC1(C)S[C@@H]2[C@H](NC(=O)OCc3ccccc3)C(=O)N2[C@H]1c1nnn[nH]1` [benzyloxycarbonyl], the minimum inhibitory concentration (MIC) was < 0.1 µg/mL.

As for `CCOC(=O)N[C@@H]1C(=O)N2[C@@H]1SC(C)(C)[C@@H]2c1nnn[nH]1` [ethoxycarbonyl], the minimum inhibitory concentration (MIC) is < 0.1 µg/mL.

On to `CC1(C)S[C@@H]2[C@H](N)C(=O)N2[C@H]1c1nnn[nH]1` [hydrogen, 6-Amino-2,2-dimethyl-3-(5-tetrazolyl)penam], for which the MIC was < 0.1 µg/mL.

Usually MIC stands for the lowest concentration found to suppress growth.
